Like-named read-outs stand apart in the source and are kept apart here.

From patent US20160015813A1, “NOVEL AND SYNERGISTIC COMPOSITION OF LECITHIN AND LYSOLECITHIN FOR IMPROVING BIOAVAILABILITY AND SOLUBILITY OF HYDROPHOBIC COMPOUNDS AND EXTRACTS” (priority 2014, published 2016) come the findings set out here.

This data set in a line: Oral bioavailability study of berberine formulation versus unformulated berberine (berberine concentration in serum). Format: in vivo, Sprague Dawley rats. The settings on record: Sprague Dawley, rat. The procedure: The study was conducted to evaluate the bioavailability of orally administered curcuminoid compositions (Table 1 and Example. 2), formulated using a synergistic combination of lecithin and lysolecithin in Sprague Dawley rats. Compositions formulated with lecithin or lysolecithin alone were also tested along with Meriva (Batch No FG-6558). These formulations were prepared using similar procedure described in examples 2 and 3. Total of twelve (12) animals were divided into four groups having three animals in each group. The test substances were administered orally to the animals via oral gavage once at 125 mg/Kg body weight active ingredient equivalent to Active ingredient. Pre-dose or 0th time blood samples were collected from all the animals before dosing the test substance, followed by blood sampling at 0.15, 0.5, 1, 1.5, 2, 4, 8, 12 and 24 hrs after dosing the test substance by sinus orbital plexus under anesthesia. Serum was separated from blood by centrifugation and was subjected to LC-MS/MS analysis for estimation of curcumin concentration in serum samples.
The similar protocol was used for the evaluation of oral bio-availability of berberine formulation (Example. 3) in comparison with the unformulated berberine and for estimation of berberine concentration in serum samples. The berberine compound and its formulations were supplemented to the animals at a dose equivalent to 100 mg/kg bodyweight of active Berberine.

For the compound `COc1ccc2cc3[n+](cc2c1OC)CCc1cc2c(cc1-3)OCO2` [LI32001, Berberine], the AUC(0-t) was found to be 23.7 ± 7.99 ng·h/mL (serum, 100 mg/kg bodyweight of active Berberine, single oral administration, read-out: Oral exposures (AUClast)) and 23.7 ± 7.99 ng·h/mL (rats, single oral dose equivalent to 100 mg/kg BW berberine, berberine in serum, 6 animals, read-out: AUClast (0-24 h)). In addition, the Cmax (as a rule, the peak of the concentration-time curve) (rats, single oral dose equivalent to 100 mg/kg BW berberine, berberine in serum, 6 animals) was 4.2 ± 1.85 ng/mL.
